This data set is described as follows: gradient 5% acetonitrile 3 min, to 50% in 2 min, to 85% in 15 min, held 3 min, 100 µL/min. The following applies: column: Zorbax Extend-C18 2.1 x 50 mm; eluents: water / acetonitrile, 0.1% formic acid. In short, it runs like this:
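Retention time was recorded from adduct peaks, which were picked computationally and each inspected manually. Pure standards ran in mixtures of ~100 molecules on HPLC coupled to a quadrupole time-of-flight mass spectrometer, in positive and negative ionization mode, through a Zorbax Extend-C18 column (2.1 × 50 mm, 1.8 μm) at 100 μL/min. Eluents were water and acetonitrile, each with 0.1% formic acid.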
In turn, `Cc1nn2c(CNS(=O)(=O)c3cccc(Cl)c3C)c(-c3ccccc3)nc2s1` gave an RP-LC retention time of 942 s.

As to `O=C(Cn1cccc(-c2nc(-c3ccc(Br)cc3)no2)c1=O)Nc1ccccc1`, the RP-LC retention time turned out to be 968 s.

In turn, `Cc1nc(S(=O)(=O)N2CCC(C(=O)N3CCN(c4ccccc4F)CC3)CC2)cn1C` displayed an RP-LC retention time of 719 s.

In turn, `CC(C)c1ccc(NC(=O)CSc2ccc(NC(=O)C3CC3)nn2)cc1` registered an RP-LC retention time of 834 s.

For the compound `CCn1ccc2cc(S(=O)(=O)N3CCC(C(=O)N4CCN(c5ccccc5)CC4)CC3)ccc21`, the RP-LC retention time was found to be 671 s.

The compound `CCc1nc2cc(-c3noc(COc4cccc(C)c4)n3)ccc2o1` showed an RP-LC retention time of 1280 s.

With `CCn1cnc(S(=O)(=O)N2CCC(C(=O)Nc3cc(C)ccc3C)CC2)c1`, the RP-LC retention time amounted to 719 s.

Consider `Cn1cc(-c2cc3n(n2)CCC(=O)N3CC(=O)NCc2ccco2)c2ccccc21`, for which the RP-LC retention time was determined as 756 s.

Turning to `O=C(NCCCN1CCC(Cc2ccccc2)CC1)C1CCCN(S(=O)(=O)N2CCOCC2)C1` (stereo not given), the RP-LC retention time stood at 660 s.

Compound `COc1ccccc1-c1cc(C(=O)N2CCN(c3cc(=O)n(C(C)C)c(=O)n3C(C)C)CC2)[nH]n1` came in with an RP-LC retention time of 861 s.

Compound `Cc1nc([C@@H]2CN(Cc3ccc(Br)o3)C[C@H]2C(N)=O)n[nH]1` yielded an RP-LC retention time of 556 s.

The compound `C=CCn1c(C(=O)N2CCN(c3ccccn3)CC2)cc2cc(S(=O)(=O)N(C)C)ccc21` showed an RP-LC retention time of 649 s.

As for `c1ccc(-c2noc(C3CNC3)n2)cc1`, the RP-LC retention time is 557 s.

With `Cc1ccc(N2CC(c3nc(-c4cccc(-c5ccnn5C)c4)no3)CC2=O)cc1C` (stereo not given), the RP-LC retention time turned out to be 1010 s.

Compound `CCc1noc(-c2ccc(-n3ncc(C(=O)N(C)C)c3C)nc2)n1` yielded an RP-LC retention time of 748 s.

For `CC(C)(C)C(=O)N1CCC(C(=O)Nc2nc3ccc(S(C)(=O)=O)cc3s2)CC1`, the RP-LC retention time was determined as 718 s.

In turn, `O=C1[C@H]2CN(Cc3cccc(F)c3F)C[C@H]2C(=O)N1Cc1ccc2c(c1)OCO2` displayed an RP-LC retention time of 919 s.

`NC(=O)C1CCN(C2CC(=O)N(c3cccc(F)c3)C2=O)CC1` (stereo not given) came in with an RP-LC retention time of 582 s.

Compound `CN1C(=O)c2cc(C(=O)N3CCN(c4ccccc4F)CC3)nn2CC1(C)C(=O)NC1CCCC1` (stereo not given) gave an RP-LC retention time of 801 s.

`COc1ccc2c(c1)C1(CCN(C(=O)Cc3ccc(OC)c(Cl)c3)C1)C(=O)N2` (stereo not given) came in with an RP-LC retention time of 745 s.

As to `COc1ccc(CNC(=O)c2ccc3c(=O)n(Cc4ccccc4)c(N4CCCC4)nc3c2)cc1`, the RP-LC retention time turned out to be 956 s.

Turning to `Cc1ccc2c(c1)N(S(C)(=O)=O)CCC(C(=O)Nc1ccc(Br)cc1)O2` (stereo not given), the RP-LC retention time was 1020 s.

As for `CC1(C(=O)NCc2ccc(F)cc2)CCCN(C(=O)Nc2ccc3c(c2)OCCO3)C1` (stereo not given), the RP-LC retention time was 792 s.

Turning to `CC(C)n1cnc2ccc(-c3noc(-c4cccc(F)c4)n3)cc21`, the RP-LC retention time worked out at 810 s.

With `O=C(C1CCCO1)N1CCN(c2nc3cccnc3n(Cc3ccccc3)c2=O)CC1` (stereo not given), the RP-LC retention time amounted to 856 s.

`Cc1ccc2c(c1)C(=O)NC1(CCN(C(=O)NC3CCCCC3)CC1)N2C` displayed an RP-LC retention time of 763 s.

The compound `O=C(Nc1nc(CC(=O)N2CCN(c3ncccn3)CC2)cs1)C1CCCC1` returned an RP-LC retention time of 669 s.

`CCN(Cc1ccc(Cl)cc1)Cc1cc(=O)n2ccc(C)cc2n1` gave an RP-LC retention time of 634 s.

With `Cn1cc2c(N3CCSCC3)nc(C(=O)N3CCN(C4CCCC4)CC3)nc2n1`, the RP-LC retention time is 579 s.

The compound `O=S(=O)(Cc1c(F)cccc1Cl)N1CCC(CN2CCCCCC2)CC1` displayed an RP-LC retention time of 695 s.

Compound `Cc1cc(NC(=O)CSc2nnc(-c3c(C)nc4sccn34)n2C)no1` gave an RP-LC retention time of 588 s.

Compound `CCCCCc1cccnc1` had an RP-LC retention time of 669 s.

For `CN(C)C(=O)c1csc(N2CCN(c3ccccc3F)CC2)n1`, the RP-LC retention time came out at 884 s.

As to `Cc1nc(-c2cc(S(=O)(=O)NCC(=O)N3CCN(c4ccccc4)CC3)c(C)s2)no1`, the RP-LC retention time stood at 896 s.

Turning to `CCn1ccc2c(cc(C(=O)Nc3cccc(OC)c3)n2C)c1=O`, the RP-LC retention time came to 748 s.

`CCCN(C)CC1(O)CCC2(CCN(C(=O)c3ccsc3)CC2)CC1` yielded an RP-LC retention time of 590 s.

As to `CC(=O)Nc1cccc(N2CC(C(=O)Nc3ccc(C(F)(F)F)cc3)CC2=O)c1` (stereo not given), the RP-LC retention time was determined as 770 s.

As for `O=C(Cc1nc(-c2cnccn2)n[nH]1)NCc1ccccc1`, the RP-LC retention time is 583 s.

In turn, `Cc1ccc(C(=O)N2C[C@@H]3C[C@H](NS(C)(=O)=O)[C@H]2C3)cc1F` registered an RP-LC retention time of 671 s.

`Cc1ccc(-c2[nH]ncc2CN2CCC3(CC2)CC(O)CCO3)cc1` (stereo not given) returned an RP-LC retention time of 588 s.

As for `CCCNc1nc(N2CCOCC2)nc(N2CC3CC(C2)c2cccc(=O)n2C3)n1` (stereo not given), the RP-LC retention time came to 562 s.

Turning to `CCN1C(=O)c2cc(S(=O)(=O)Nc3ccc(C)c(C)c3)ccc2Oc2cccnc21`, the RP-LC retention time is 986 s.

`Cc1cc(C(=O)N2CCC(c3nc4ccccc4s3)CC2)no1` displayed an RP-LC retention time of 763 s.

`Cc1oc(-c2[nH]ncc2C(=O)N(C)C)cc1S(=O)(=O)Nc1ccc(Cl)cc1F` returned an RP-LC retention time of 714 s.

In the case of `Cn1cc(S(=O)(=O)N2CCOCC2)cc1C(=O)N1CCN(c2ccccn2)CC1`, the RP-LC retention time is 574 s.

`COCCn1cc(CCNC(=O)Nc2ccc(C)cc2Cl)c2cccnc21`: the RP-LC retention time came out at 790 s.

In turn, `C=CCn1nc2ccc(S(=O)(=O)N3CCCC3)cn2c1=O` displayed an RP-LC retention time of 706 s.

For the compound `CCCNc1c(C(=O)OC)c(=O)[nH]c2c(Cl)cccc12`, the RP-LC retention time was determined as 724 s.

Consider `Cc1cccc(OCc2nc(-c3ccc4oc(C)nc4c3)no2)c1`, for which the RP-LC retention time stood at 1180 s.

As to `O=[N+]([O-])c1cccc(-c2nnc(-c3ccccc3)o2)c1`, the RP-LC retention time is 887 s.

As to `CCCCCNC(=O)C1CCN(S(C)(=O)=O)c2cc(Cl)ccc2O1` (stereo not given), the RP-LC retention time was 920 s.

In turn, `Cc1cc2nc3sc(C(=O)NCCCN4CCN(C)CC4)cc(=O)n3c2cc1C` returned an RP-LC retention time of 730 s.

On to `O=C(Nc1ccc(F)cc1F)C1CCc2nc(N3CCOCC3)ncc2C1` (stereo not given), for which the RP-LC retention time worked out at 734 s.

Regarding `Cc1cc(OCC(=O)Nc2cccc(F)c2)nc(N2CCN(c3ccccc3)CC2)n1`, the RP-LC retention time stood at 871 s.

Compound `CCOC(=O)c1ccc(NC(=O)N2CCC(n3cnc4cccnc43)CC2)cc1` yielded an RP-LC retention time of 674 s.

`Cc1ccccc1Oc1nccn2c(=O)n(CC(=O)Nc3ccccc3Cl)nc12` had an RP-LC retention time of 863 s.

`CCCCOc1ccc(C(=O)NC2(c3nc(CC)no3)CCCCC2)cc1`: the RP-LC retention time was 1160 s.

`CCCNC(=O)c1cnn(-c2cc(-c3nc(C4CC4)no3)ccn2)c1C` returned an RP-LC retention time of 911 s.

`O=S(=O)(c1cc(-c2nnc(C3CCCC3)o2)co1)N1CCCCC1`: the RP-LC retention time was 1000 s.

`COc1ccccc1NC(=O)N1CCCC1c1nc(-c2ccccc2OC)no1` (stereo not given) came in with an RP-LC retention time of 894 s.

In turn, `Cc1cc2c(cc1S(=O)(=O)N1CCCC1C(=O)Nc1ccc3c(c1)OCO3)OCC(=O)N2` (stereo not given) gave an RP-LC retention time of 720 s.

Turning to `CCOc1ccc(NC(=O)Cn2c(=O)nc(N3CCC(C)CC3)c3ccccc32)cc1`, the RP-LC retention time was determined as 845 s.

The compound `COCC(=O)N(CC(=O)N1CCc2sccc2C1COc1ccc(C)cc1)C(C)C` (stereo not given) displayed an RP-LC retention time of 867 s.

The compound `COc1ccc(OC)c(S(=O)(=O)N2CCCC(C(=O)NCC(C)C)C2)c1` (stereo not given) came in with an RP-LC retention time of 796 s.

`CCOc1ccc(-c2[nH]ncc2CNS(=O)(=O)c2ccccc2CC)cc1`: the RP-LC retention time was 884 s.

As for `CC(Oc1ccccc1)C(=O)N1CCN(c2nc(CN3CCOCC3)cs2)CC1` (stereo not given), the RP-LC retention time turned out to be 621 s.

For `C#Cc1cccc(Nc2ncnc3cc(OC)c(OCCCCCCC(=O)NO)cc23)c1`, the RP-LC retention time stood at 707 s.

Compound `CN1C(=O)C2(CCN(C(=O)c3ccccc3F)C2)c2ccccc21` (stereo not given) registered an RP-LC retention time of 750 s.

For `CN(C(=O)c1cc2c(=O)oc3ccccc3c2n1C)c1ccccc1F`, the RP-LC retention time is 1060 s.

`Cc1ccnc(NC(=O)C2CC(=O)N(c3n[nH]c4ccccc34)C2)c1` (stereo not given): the RP-LC retention time was 592 s.

`CCC(=O)Nc1cc2c(cc1Sc1ccc(C)cc1)n(C)c(=O)n2C` yielded an RP-LC retention time of 893 s.

Compound `Cc1ccc(NC(=O)Cn2nc(C(=O)N3CCCC3)c3ccccc32)cc1` yielded an RP-LC retention time of 850 s.

For `CCOC(=O)C1CCN(C(=O)C2CCN(c3nccc(C)n3)CC2)CC1`, the RP-LC retention time turned out to be 662 s.

In turn, `O=C(NCC1CC1)[C@@H]1OCCN(C2CC2)[C@H]1c1ccccc1` returned an RP-LC retention time of 612 s.

As for `COc1ccc(-c2ccc(N3CCN(c4ccccc4)CC3)nn2)cc1S(=O)(=O)N1CCOCC1`, the RP-LC retention time turned out to be 766 s.

As for `O=c1c2ccccc2n(Cc2nc(-c3cccc(Br)c3)no2)c(=O)n1CC1CCCO1` (stereo not given), the RP-LC retention time worked out at 1150 s.

In turn, `CN1CCc2nnc(C3CCN(C(=O)Nc4ccc(Cl)cc4C(F)(F)F)C3)n2CC1` (stereo not given) yielded an RP-LC retention time of 610 s.

In turn, `O=C(NC1CC(=O)N(C2CC2)C1)C1CC=CCC1` (stereo not given) displayed an RP-LC retention time of 591 s.

In turn, `CCCN1C(=O)c2c(C(=O)NCc3ccc(F)cc3)ncn2CC1(C)C(=O)NCc1ccc(F)cc1` (stereo not given) registered an RP-LC retention time of 778 s.

On to `Cc1ccccc1-c1noc2ncnc(N3CCN(c4ccccn4)CC3)c12`, for which the RP-LC retention time amounted to 673 s.

The record behind these values is the METLIN SMRT retention time set (Domingo-Almenara et al. 2019).
